# Results from US6767569B1, “Surface decontamination of cooked sausage and processed meat and poultry products” (priority 1999, dated 2004).
# Experiments:
# Format in all cases: cell-based
# [1] = tested on: E. coli
# Method: (§1) Each strain was subcultured on tryptic soy agar (TSA, DIFCO, Detroit, Mich.) slants and stored at 4° C. Strains were individually transferred into 100 mL of sterile 2× BHI (DIFCO, Detroit, Mich.) and incubated at 35° C. for 24 hr. to reach ca. 10^9 colony forming units/mL (CFU/mL). Then, 25 mL of each strain of E. coli was transferred into a sterile bottle (mixture X), and 25 mL of each strain of each strain of Salmonella spp. was transferred into a sterile bottle (mixture Y). Mixtures X and Y were maintained separately throughout the test.
# (§2) Serial dilutions were made using Butterfields' Phosphate Buffer (BPB, Sigma, St. Louis, Mo.) in 1 mL aliquots prior to inoculation. BPB was prepared as a stock solution by adding 34 g Of KH2PO4 to 500 mL of distilled water. The pH was adjusted to 7.2, and the solution was brought to a volume of 1 L. The BPB stock was autoclaved for 20 min. at 121° C. and 15 lbs. of pressure. […] For glacial acetic acid (U.S.P.-F.C.C., J. T. Baker, Phillipsburg, N.J.), starting concentrations and serial dilutions were 50%, 25%, 12.5%, 6.25%, 3.12%, 1.56%, 0.78%, 0.39%, and a control (no treatment, buffer and culture). […] For peracetic acid 35.0% (STERIS 20™, STERIS Corporation, Mentor, Ohio), starting concentrations and serial dilutions were 17.5%, 8.75%, 4.38%, 2.19%, 1.09%, 0.55%, 0.30%, 0.14%, 0.07%, 0.03%, and a control. For liquid smoke (Hickory Specialties, Brentwood, Tenn.) starting concentrations and serial dilutions were 50%, 25%, 12.5%, 6.25%, 3.12%, 1.56%, 0.78%, 0.39%, and a control. Dilutions were prepared with deionized water.
# (§3) The test tubes were incubated at 35° C. for 24 hrs. and turbidity was evaluated using McFarland equivalence standards, to study the bacteriostatic properties of the diluted solutions. In addition, each dilution was plated to evaluate the bactericidal properties of, the diluted solutions. Using a 1 μL sterile loop, each concentration and control for either microorganism mixture was streaked on plate count agar (PCA, DIFCO, Detroit, Mich.). A selective agar was also used for each mixture, eosine methylene blue agar (EMB, DIFCO, Detroit, Mich.) for E. coli and xylose lysine decarboxylase agar (XLD, DIFCO, Detroit,Mich.) for Salmonella spp. All plates were incubated for 24 hrs. at 35° C. and were inspected for growth or no growth.
# [2] = tested on: Salmonella spp.; details: 35 °C, 24 hrs
# Method: as §1, §2, §3
# [3] = tested on: E. coli; details: pork skin; 5 seconds spray; 2% lactic acid, 2% acetic acid, 0.1% peracetic acid; after 24 hours
# Method: (§4) Samples of pork skin were inoculated separately with either 5 strains of E. coli or 5 strains of Salmonella spp. (mixtures X and Y, see Example 4). Five different treatments were evaluated for effectiveness in reducing bacteria on pork skin. […] EMB agar was used for E. coli and XLD for Salmonella, and a nutrient agar was also used for E. coli and Salmonella for total count.
# (§5) The five strains of generic E. coli and five strains of Salmonella spp. were cultured and transferred individually into 100 mL of tryptic soy broth (TSB, DIFCO, Detroit, Mich.) with 1% dextrose (Sigma, St. Louis, Mo.) in duplicate. Dextrose was added to induce acid tolerance in the microbial cell. The cultures were incubated at 35° C. for 24 hrs. to obtain ca. 10^9 colony forming units (CFU)/mL. The cells were harvested by the centrifuging each culture at 10,000 Xg force for 10 min. at 4° C., (Beckman J2-HS centrifuge, Beckman Instruments, Inc., Palo Alto, Calif.). After centrifugation, the supernatant was poured off, and cells remained in pellet form. Each pellet was individually re-suspended with 50 mL of 0.1% peptonewater (DIFCO, Detroit, Mich.). All five strains of E. coli or Salmonella spp. inoculum were transferred to separate HDPE plastic spray bottles (Sprayco™, Detroit, Mich.) to be used in the mist inoculation of pork skin samples.
# (§6) For E. coli, PCA and EMB media were used, and for Salmonella, PCA and XLD media were used. Bacto Plate Count Agar (PCA) was used in this study as a standard methods medium for the enumeration of bacteria before and after treatments. Spiral (sl), or spread (sd) plate technique were used for viable cell counts. Duplicate plates were performed for each treatment.
# (§7) Fresh pork skins taken from the loin region were cut to rectangles of 19.35 cm^2. A hole was bored into the top of each sample so that each sample could be suspended from an individual hook in the spray cabinet. Samples were laid out onto trays wrapped in butcher paper. Each tray was individually spray inoculated with E. coli or Salmonella spp. in a Plexiglas spray chamber to ca. 8.4 mL of inoculum. After the inoculation, each tray was placed under a laminar flow hood for 1 hr. to allow the surface to dry and for the attachment of the bacteria to the pork skin.
# (§8) The peracetic acid (PAA) used in this study was a 35.0% PAA buffered, liquid solution prepared from a STERIS 20™ two compartment cup (a dry powder containing anticorrosive additives, buffers, sequestrants, and surfactants). The peracetic acid determined before each use of the treatment using a calibration curve.
# (§9) Five inoculated samples were individually placed on stainless steel hooks in. a spray cabinet at ambient temperature.
# (§10) The samples were exposed to a continuous spray of the selected treatment for 5 seconds at a spray pressure of 16-18 psi.
# (§11) The treated samples were placed into individual stomacher bags containing 30 mL of 0.1% peptone water (DIFCO, Detroit, Mich.) and stomached for 2 min. Serial dilutions of 0, 10^−2, and 10^−4 were spiral plated (WASP spiral plater, Bioscience International, Rockville, Md.) on PCA (DIFCO, Detroit, Mich.) and EMB (DIFCO, Detroit, Mich.) for E. coli and on plate count agar (PCA, DIFCO, Detroit, Mich.) and xylose lysine decarboxylase agar (XLD, DIFCO, Detroit, Mich.) for Salmonella spp. Samples were also spread plated on PCA and EMB agar for E. coli or PCA and XLD agar for Salmonella spp, using […] for a total of 1 mL on 4 plates. This was to ensure a countable plate. Plates were inverted and incubated at 35° C. for 24 hrs. (48 hrs. for Salmonella spp.).
# [4] = tested on: Salmonella spp.; details: pork skin; 5 seconds spray; 2% lactic acid, 2% acetic acid, 0.1% peracetic acid; after 48 hours
# Method: as §4, §5, §6, §7, §8, §9, §10, §11
smiles,measurement,setting,value
"CC(=O)O [Acetic Acid, acetic acid, reference compound]",MIC (%),[1],3.12%
same,MIC (%),[2],0.78%
same,Total Count (E. coli) on EMB,[3],4.55 Log CFU/cm^2
same,Total Count (E. coli) on PCA,[3],4.68 Log CFU/cm^2
same,Total Count (Salmonella) on PCA,[4],5.37 Log CFU/cm^2
same,Total Count (Salmonella) on XLD,[4],4.27 Log CFU/cm^2
